“And” between values parts separate entries of the source, which are not always exact repeats. Identical values can stand only once.
What was measured:
Assay type in all cases: cell-based
[1] = tested on: Escherichia coli ATCC strain MM294 cells; assay: Preservation survival of electrocompetent E. coli MM294 cells dried by foam formation (plate count); settings: cells loaded with 10% MAG, preserved (dried) by foam formation; average of three independent experiments
Experimental: (1) Preparation of fresh electrocompetent cells: Escherichia coli ATCC strain MM294 cells were grown under standard conditions in L-broth (growth medium for E. coli), at 37° C., with moderate aeration (shaking at 250 rpm). An isolated colony from a fresh streak was inoculated into 5 ml of L-broth and incubated overnight (preculture). The following morning, the preculture was subcultured (1% inoculum) in 100 ml of L-broth+glucose (0.05%-0.5%). The cells were incubated until OD550=0.5 (subculture). At this point, the cells were transferred into 250 ml of L-broth+glucose (0.05%-0.5%) and incubation continued until OD550=0.8. Two flasks with 250 ml of cells were prepared.
When the culture OD550 reached 0.8 (cell density approx. 5×10^8 cfu/ml), the cells were harvested by centrifugation at 2,500 rpm (at room temperature) for 10 minutes. […] Bacterial counts were determined by diluting cells in PBS buffer and spread plating appropriate dilutions in duplicate on L-agar. The plates were incubated at 37° C. overnight and colonies were counted the following day. […]
(5) Assaying the preserved E. coli cells: Dried samples were rehydrated at room temperature. […] Plates were incubated at 37° C. overnight and colonies were counted the following day. […]

[2] = tested on: commercial electrocompetent E. coli cells; assay: Preservation yield and stability of commercial electrocompetent E. coli cells
Experimental: (4) Preservation of electrocompetent E. coli cells: The cells (resuspended in PBS buffer or on 20% sucrose) were mixed with an equal mass of preservation solution consisting of 45% 2:1 sucrose:raffinose or 45% 4:1 sucrose:MAG on ice. Altematively, the cell pellets were resuspended directly in 22.5% sucrose:raffinose or 22.5% 4:1 sucrose:MAG. The 0.5 g aliquots were distributed in 5 ml glass serum vials or 0.2 g aliquots were distributed in 1.2 ml glass serum vials. To determine the survival in preservation solution before drying, cell-containing mixtures were diluted in PBS buffer containing 20% sucrose and appropriate dilutions were spread plated in duplicate on L-agar plates.
The samples were dried by foam formation. The mixtures were foamed at 0° C. and kept at that temperature until foam formation occurred. After foam was well formed, shelf temperature was increased to 20° C. and drying continued overnight (at least 12 hours).
When applicable, electrocompetent cells were frozen in the following manner. The cell suspension (100 μl) was mixed with 10% DMSO (10 μl) and slowly frozen at −80° C.
(5) Assaying the preserved E. coli cells: Dried samples were rehydrated at room temperature. 1 ml of rehydration solution (20% sucrose) was added to the 5 ml vials and 0.2 ml was added to the 1.2 ml vials. For the determination of preservation survival, rehydrated cells were diluted and spread plated in duplicate on L-agar plates. Plates were incubated at 37° C. overnight and colonies were counted the following day.
In this example, commercial electrocompetent E. coli cells, in the form of a bacterial pellet, were preserved by the foam formation process. The cells were concentrated 100-fold and preserved as described previously. To increase desiccation tolerance and enhance preservation survival. One aliquot of the cells were loaded in vitro with 10% MAG. The preserved cells were stored at 4° C. In addition to preservation by foam formation, the cells were preserved by slow freezing (with 10% DMSO) at −80° C.

[3] = tested on: logarithmic E. coli cells; assay: Preservation survival and stability of logarithmic E. coli cells loaded in vitro before foam drying; settings: mid-logarithmic cells loaded with 0.1% at 37° C. for 30 minutes
[4] = Frozen cells 72 hours at −80° C., foam formation-preserved cells (loaded with 10% MAG) dried overnight
[5] = foam-preserved cells stored at 4° C., frozen cells at −80° C.

COC1OC(CO)C(O)C(O)C1O (stereo not shown) [MAG, a-methyl-glucoside]
Preservation Yield Cfu/ml [1]: 1.1 × 10^10 Cfu/ml
Preservation yield % [1]: 53.5%
Preservation Yield Cfu/ml [2, 4]: 8.8 × 10^9 +/− 3.9 × 10^8 Cfu/ml
Preservation yield % [2, 4]: 63.6% and 63.6 +/− 2.8%
Stability (12 days) % [2, 5]: 68.5% and 68.5 +/− 0.8%
Stability (12 days) Cfu/ml [2, 5]: 9.5 × 10^9 +/− 1.1 × 10^8 Cfu/ml
survived drying [3]: 9%
